Laboratory results from PMC7645423, “Chemical composition and biological effects of kratom (Mitragyna speciosa): In vitro studies with implications for efficacy and drug interactions” (Scientific Reports, 2020).
“Also recorded” adds a separate entry of the source.

Tests used:
CYP2D6 = CYP2D6 (Homo sapiens, UniProt P10635); assay: CYP inhibition in human liver microsomes, dextromethorphan O-demethylation; conditions: for Inhibition of CYP2D6 activity (in words): human liver microsomes, extracts 2, 10, 20 µg/mL, alkaloids 1, 10, 100 µM
Sequence of CYP2D6 (P10635 whole entry): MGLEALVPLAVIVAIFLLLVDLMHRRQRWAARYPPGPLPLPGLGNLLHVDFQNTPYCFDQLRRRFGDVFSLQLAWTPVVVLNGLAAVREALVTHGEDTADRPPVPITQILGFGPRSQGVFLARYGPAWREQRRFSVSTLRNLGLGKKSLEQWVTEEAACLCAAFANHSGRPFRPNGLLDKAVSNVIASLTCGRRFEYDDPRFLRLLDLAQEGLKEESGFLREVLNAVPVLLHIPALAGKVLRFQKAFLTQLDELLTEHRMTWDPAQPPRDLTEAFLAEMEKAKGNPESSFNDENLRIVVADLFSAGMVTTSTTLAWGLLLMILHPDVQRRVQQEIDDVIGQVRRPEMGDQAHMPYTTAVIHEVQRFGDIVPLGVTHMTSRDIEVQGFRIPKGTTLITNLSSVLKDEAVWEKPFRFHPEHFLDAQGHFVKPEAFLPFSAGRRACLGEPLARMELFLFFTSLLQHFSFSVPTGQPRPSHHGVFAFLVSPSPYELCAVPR

hMOR = hMOR (Homo sapiens, UniProt P35372); assay: cell-based; format: cell-based; conditions: for Emax: CHO-K1, read-out: cAMP accumulation Emax %
Sequence of hMOR (P35372 whole entry): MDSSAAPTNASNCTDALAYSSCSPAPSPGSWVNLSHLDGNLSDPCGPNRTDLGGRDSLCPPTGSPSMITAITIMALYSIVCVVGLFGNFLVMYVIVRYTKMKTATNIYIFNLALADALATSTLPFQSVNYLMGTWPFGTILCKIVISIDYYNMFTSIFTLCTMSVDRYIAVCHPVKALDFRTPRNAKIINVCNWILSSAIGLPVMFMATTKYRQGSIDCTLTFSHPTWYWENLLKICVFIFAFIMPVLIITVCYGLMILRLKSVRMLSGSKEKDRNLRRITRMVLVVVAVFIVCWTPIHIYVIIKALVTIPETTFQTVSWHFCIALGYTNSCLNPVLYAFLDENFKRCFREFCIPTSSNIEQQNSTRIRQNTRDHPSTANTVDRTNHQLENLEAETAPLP

human δ-opioid receptor = target: T1, human δ-opioid receptor (Homo sapiens, UniProt P41143); assay: Competitive radioligand binding, δ-opioid receptor; conditions: for Ki: competitive binding against 3H-deltorphin, HEK293 cell membranes, minimum of three replicates, read-out: Receptor binding affinity (Ki ± SEM, nM) δ-opioid; for Affinity at δ-opioid receptor (in words): competitive radioligand binding, HEK293
T1 construct: expressed in transfected cells
T1 sequence (P41143 whole entry): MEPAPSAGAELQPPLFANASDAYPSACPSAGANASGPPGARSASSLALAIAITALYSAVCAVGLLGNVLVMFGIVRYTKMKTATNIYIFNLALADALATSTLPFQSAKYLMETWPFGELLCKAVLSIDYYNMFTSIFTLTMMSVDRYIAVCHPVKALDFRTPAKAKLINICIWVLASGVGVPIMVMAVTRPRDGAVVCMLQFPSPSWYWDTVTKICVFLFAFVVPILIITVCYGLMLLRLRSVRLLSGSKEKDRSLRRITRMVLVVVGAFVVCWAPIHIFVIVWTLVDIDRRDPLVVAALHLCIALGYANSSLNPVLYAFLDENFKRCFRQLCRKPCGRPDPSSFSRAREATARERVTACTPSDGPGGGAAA

CYP2C9 = CYP2C9 (Homo sapiens, UniProt P11712); assay: CYP inhibition in human liver microsomes, diclofenac 4′-hydroxylation; conditions: for Inhibition of CYP2C9 activity (in words): human liver microsomes, extracts 2, 10, 20 µg/mL, alkaloids 1, 10, 100 µM
Sequence of CYP2C9 (P11712 whole entry): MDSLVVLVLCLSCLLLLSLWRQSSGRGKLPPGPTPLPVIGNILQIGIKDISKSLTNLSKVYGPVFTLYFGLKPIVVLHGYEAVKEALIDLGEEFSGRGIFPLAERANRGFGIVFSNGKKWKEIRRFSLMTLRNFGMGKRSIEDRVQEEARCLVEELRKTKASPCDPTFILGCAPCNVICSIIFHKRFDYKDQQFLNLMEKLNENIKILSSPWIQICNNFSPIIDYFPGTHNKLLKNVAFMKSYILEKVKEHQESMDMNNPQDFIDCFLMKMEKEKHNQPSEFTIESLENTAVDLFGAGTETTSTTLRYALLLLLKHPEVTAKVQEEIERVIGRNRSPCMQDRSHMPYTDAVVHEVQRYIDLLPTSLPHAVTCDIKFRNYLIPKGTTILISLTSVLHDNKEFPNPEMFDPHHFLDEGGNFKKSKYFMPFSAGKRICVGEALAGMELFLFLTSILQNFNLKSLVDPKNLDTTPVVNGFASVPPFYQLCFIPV

human κ-opioid receptor = target: T2, human κ-opioid receptor (Homo sapiens, UniProt P41145); assay: biochemical; format: binding
T2 construct: expressed in transfected cells
T2 sequence (P41145 whole entry): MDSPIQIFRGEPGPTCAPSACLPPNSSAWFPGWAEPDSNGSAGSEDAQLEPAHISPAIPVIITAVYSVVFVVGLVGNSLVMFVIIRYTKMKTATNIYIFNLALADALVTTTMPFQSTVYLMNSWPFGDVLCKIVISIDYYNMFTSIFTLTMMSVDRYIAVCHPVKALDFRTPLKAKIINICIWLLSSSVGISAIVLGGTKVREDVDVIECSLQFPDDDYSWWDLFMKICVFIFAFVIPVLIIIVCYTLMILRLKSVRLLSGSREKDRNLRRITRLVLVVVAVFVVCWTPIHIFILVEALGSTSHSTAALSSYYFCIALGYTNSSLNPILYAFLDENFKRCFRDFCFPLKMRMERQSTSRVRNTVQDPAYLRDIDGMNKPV

µ-opioid receptor [1] = target: T3, µ-opioid receptor (Homo sapiens, UniProt P35372); format: cell-based
T3 sequence (P35372 whole entry): as the sequence (P35372 whole entry) above

CYP3A = CYP3A (Homo sapiens, UniProt P08684); assay: CYP inhibition in human liver microsomes, midazolam 1′-hydroxylation; conditions: for Inhibition of CYP3A activity (in words): human liver microsomes, extracts 2, 10, 20 µg/mL, alkaloids 1, 10, 100 µM
Sequence of CYP3A (P08684 2-503): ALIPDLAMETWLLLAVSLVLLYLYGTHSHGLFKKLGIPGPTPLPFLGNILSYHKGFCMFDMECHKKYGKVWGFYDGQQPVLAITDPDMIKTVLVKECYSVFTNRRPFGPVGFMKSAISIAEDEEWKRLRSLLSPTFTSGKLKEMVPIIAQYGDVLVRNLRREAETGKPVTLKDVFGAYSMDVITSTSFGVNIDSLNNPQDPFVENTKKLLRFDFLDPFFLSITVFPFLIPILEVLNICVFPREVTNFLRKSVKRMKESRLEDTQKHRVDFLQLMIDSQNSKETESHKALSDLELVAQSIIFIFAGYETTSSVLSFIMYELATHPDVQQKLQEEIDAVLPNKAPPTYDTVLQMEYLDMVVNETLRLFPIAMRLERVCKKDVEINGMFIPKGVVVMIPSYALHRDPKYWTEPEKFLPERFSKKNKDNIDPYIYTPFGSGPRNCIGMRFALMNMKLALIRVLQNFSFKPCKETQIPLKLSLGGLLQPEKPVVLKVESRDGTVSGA

µ-opioid receptor [2] = target: T3, µ-opioid receptor; assay: biochemical; format: binding; design: expressed in transfected cells
[3] = tested on: human µ-opioid receptor (hMOR); conditions: cited from earlier work

| Compound | Inhibition of CYP2D6 activity (in words) (CYP2D6) | EC50 (hMOR) [µM] | Inhibition of forskolin-stimulated cAMP accumulation (in words) (hMOR) | Emax (hMOR) [%] | Ki (human δ-opioid receptor) [nM] | Affinity at δ-opioid receptor (in words) (human δ-opioid receptor) | Inhibition of CYP2C9 activity (in words) (CYP2C9) | Affinity at ƙ-opioid receptor (in words) (human κ-opioid receptor) | Ki (human κ-opioid receptor) [µM] | β-arrestin-2 recruitment (in words) (µ-opioid receptor [1]) | Inhibition of CYP3A activity (in words) (CYP3A) | Affinity at µ-opioid receptor (in words) (µ-opioid receptor [2]) | Ki (µ-opioid receptor [2]) [µM] | IC50 (CYP2D6) [µM] | IC50 (CYP2C9) [µM] | IC50 at 2 min (CYP3A; human, microsomes, pH 7.4) [µM] | Affinity at the μ-opioid receptor compared to mitragynine [3] |
| --- | --- | --- | --- | --- | --- | --- | --- | --- | --- | --- | --- | --- | --- | --- | --- | --- | --- |
| CC[C@@H]1CN2CC[C@]3(C(=O)Nc4cccc(O)c43)[C@H]2C[C@@H]1/C(=C\OC)C(=O)OC [Speciofoline, speciofoline] | concentration-dependent inhibition | 4.24 ± 2.93 | has no effect | 12.2 ± 3.5 | > 10000 | did not exhibit appreciable affinity | concentration-dependent inhibition | did not exhibit appreciable affinity | > 10 | fail to recruit β-arrestin-2 | concentration-dependent inhibition | did not exhibit appreciable affinity | > 10 | – | – | – | – |
| C[C@@H](NC(=O)[C@@H](N)Cc1ccc(O)cc1)C(=O)NCC(=O)N(C)[C@@H](Cc1ccccc1)C(=O)NCCO [DAMGO, reference compound] | – | – | fully inhibit cAMP accumulation | 86.2 ± 1.8 | – | – | – | – | – | effectively recruit β-arrestin-2 | – | – | – | – | – | – | – |
| CC[C@@H]1CN2CCc3c([nH]c4cccc(OC)c34)[C@@H]2C[C@@H]1/C(=C\OC)C(=O)OC [Mitragynine, mitragynine] | stronger inhibition than speciofoline; also recorded: concentration-dependent inhibition | – | partially inhibit cAMP accumulation | – | > 10000 | – | concentration-dependent inhibition | moderate affinity | 0.482 ± 0.029 | fail to recruit β-arrestin-2 | concentration-dependent inhibition | moderate affinity | – | ~1 | 10 to 100 | 10 to 100 | – |
| CC[C@@H]1CN2CC[C@@]3(O)C(=Nc4cccc(OC)c43)[C@@H]2C[C@@H]1/C(=C\OC)C(=O)OC [7-Hydroxymitragynine, 7-hydroxymitragynine] | moderate inhibitor; also recorded: concentration-dependent inhibition | – | partially inhibit cAMP accumulation | – | – | moderate affinity | weak inhibitor; also recorded: concentration-dependent inhibition | moderate affinity | – | fail to recruit β-arrestin-2 | weak inhibitor; also recorded: concentration-dependent inhibition | strong affinity | – | – | – | – | approximately fivefold greater affinity |
